Measurements as given in PMC13195669, “GPR3 Ligands Discovered through Combined Virtual and Conformational Biosensor-Based Screening” (Journal of the American Chemical Society, 2026).

Target: T1, GPR3 (Homo sapiens, UniProt P46089)
T1 construct: host or cells: HEK293A, transient
Test: FRET/BRET cAMP biosensor in HEK293A cells cotransfected with GPR3
Assay type: cell-based
Conditions: for GPR3-dependent change in cAMP: cAMP biosensor, pcDNA vs GPR3 transfected HEK293A
Description: With the first GPR3 ligands identified by using a conformational readout in our hands, we next wanted to understand whether these compounds could have been detected in a cAMP-based assay, which has been used extensively in the past to screen for GPR3 ligands. We therefore tested rac-VH1/52, VH2/93 and VH3/115 in cells expressing a cAMP biosensor.
3 Effect of rac-VH1/52, VH2/93 and VH3/115 on GPR3-dependent cAMP production. (a–c) Vehicle-corrected BRET changes induced by rac-VH1/52 (a), VH2/93 (b) or VH3/115 (c) in HEK293A cells transiently transfected with a cAMP BRET sensor along with pcDNA or GPR3. […] Statistical significance was tested using Two-Way ANOVA followed by Sidak multiple comparison (*: […]; **: p < 0.01). […]
Plasmids and molecular cloning
The H187-EPAC-FRET sensor7 was kindly provided by K. Jalink (The Netherlands Cancer Institute, Amsterdam, The Nether-lands). The BRET-based cAMP sensor CAMYEL8 was kindly provided by Laura Humphrys (University of Regensburg, Regens-burg, Germany). Plasmids encoding the conformational biosensors α2AAR- and β2AR-HaloTag/Nluc9 and the Gs heterotrimer dissociation sensor10 were previously described. The expression plasmid encoding N-terminally HA-tagged GPR3 (cat. no.
#GPR003TN00) on a pcDNA3.1+ vector was obtained from the cDNA resource center (cdna.org). The Nluc and HaloTag in-serts were amplified with overhanging restriction sites from β2AAR- HaloTag/Nluc and ligated to the full-length C-terminus or inserted into icl3 of GPR3, respectively, to obtain the conformational biosensor GPR3-HaloTag/Nluc. Point mutants of GPR3-HaloTag/Nluc were generated using the GeneArt Site-directed Mutagenesis System (Thermo Fisher Scientific). All con-structs were verified by sequencing (Eurofins genomics).
Poly-D-lysine, polyethylenimin hydrochloride (linear; average Mn 20 000; PEI) , […], LPA , forskolin, NECA and bovine serum albumin (BSA) were obtained from Sigma Aldrich (Merck KGaA). Dulbecco's Modified Eagle's Medium (DMEM), Dul-becco's Phosphate -Buffered Saline (DPBS) and G -418 (Geneticin) were from Gibco. Diphenyleneiodonium chloride (DPI) and AF64394 were purchased from Tocris (Bio -Techne). The TMB (3, 3', 5, 5' tetramethyl benzidine) substrate reagent set was from BioLegend. The Nluc substrate furimazine and the red fluorescen t HaloTag dye, HaloTag® NanoBRET® 618 Ligand, were obtained in a single kit from Promega (cat. no. N1662). D-luciferin-sodium and the S1PR1 agonist III were from Med-ChemExpress. The Rluc substrate coelenterazine 400a was from NanoLight Technology (cat. no. 340 -10). White -wall, white - bottomed 96 -well, black -wall, black bottomed and transparent 96 -well microtiter plates were from Brand.
HEK293A cells were used for transient transfection and grown in Dulbecco’s modified Eagle’s medium (DMEM) supplemented with 2 mM glutamine, 10 % fetal calf serum, streptomycin (0.1 mg/mL), and penicillin (100 U/mL) at 37 °C with 5 % CO2. […]
Transient transfection and plating
Resuspended cells (300,000 cells/mL) were transfected in suspension with a total of 1 μg DNA/mL suspension using PEI (1 mg/ml stock solution; 3 μL PEI solution per μg DNA). For cAMP experiments with FRET- or BRET-based sensors, resuspended cells were transfected with 500 ng pcDNA, wildtype GPR3 or GPR3-HaloTag/Nluc constructs along with 500 ng of the FRET-or BRET-based cAMP sensor per mL cell suspension. For cAMP experiments with GloSensor™ 22F, resuspended cells were transfected with 250 ng pcDNA or GPCR along with 500 ng of a 1:1 mix of pcDNA with the GloSensor™ 22F per mL cell sus-pension. Cells mixed with the transfection reagents were seeded onto poly-D-lysine–precoated, 96-well plates and grown for 48 h at 37 °C with 5 % CO2. Stable α2AAR-, β2AR- or GPR3-HaloTag/Nluc expressing cells were seeded 24 h before the experi-ment at a density of 800,000 cells/mL into white 96-well plates. To monitor changes in BRET in with conformational GPCR […]

[1] = 30 μM pretreatment, cells coexpressing GPR3

T1 sequence (P46089 whole entry): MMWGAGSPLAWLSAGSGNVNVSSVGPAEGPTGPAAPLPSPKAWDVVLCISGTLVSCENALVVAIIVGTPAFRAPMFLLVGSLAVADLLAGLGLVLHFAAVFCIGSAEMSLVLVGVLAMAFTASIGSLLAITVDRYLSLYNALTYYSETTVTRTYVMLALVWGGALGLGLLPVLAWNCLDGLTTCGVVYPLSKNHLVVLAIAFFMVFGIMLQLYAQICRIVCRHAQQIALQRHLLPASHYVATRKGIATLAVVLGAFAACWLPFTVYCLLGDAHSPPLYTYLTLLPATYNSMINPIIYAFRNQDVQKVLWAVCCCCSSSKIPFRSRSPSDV

effect of pretreatment on AF64394 response in cAMP assay [1] | effect of pretreatment on DPI-induced cAMP generation [1] | SMILES | GPR3-dependent change in cAMP
no effect on the effect of AF64394 | inhibited DPI-induced cAMP generation | N=c1n(Cc2ccccc2)c2ccccc2n1CC1CC1 [compound 33] | 
 |  | N=c1n(Cc2ccccc2)c2ccccc2n1CC(O)COc1ccc(Cl)cc1 (stereo not shown) [compound 52] | induced GPR3-dependent changes in cAMP concentrations
 |  | Cc1ccc(NC(=O)CN2CCN(C(=O)CCc3ccc(Cl)cc3)CC2)cc1 [compound 115] | modulates the conformation of GPR3 but not GPR3-dependent cAMP production
